From patent US20150164794A1, “METHOD FOR PREPARING AQUEOUS NANOPARTICLE SUSPENSIONS OF DERIVATIVES OF 4,9-DIHYDROXY-NAPHTHO[2,3-b]FURAN ALIPHATIC ACID ESTERS” (Zhoushan Haizhongzhou Xinsheng Pharmaceuticals, Co., Ltd., priority 2012, published 2015)
Where two headings read alike, the source gives them in different places.

Experiment: Pharmacokinetic study of nanoparticle suspension NS-I-4 in ICR mice
Format: in vivo
Details: for MRT last: read-out: MRT(0-t); for MRT inf: read-out: MRT(0-∞); for Vd: read-out: Vz
Method: Nanoparticle suspension NS-I-4, prepared according to the method as described in example 5, was administered intravenously into ICR mice at a dosage of 30 mg/kg. At different time points (5 min, 10 min, 30 min, 1 h, 2 h, 3 h, 4 h, 6 h) after the drug injection, blood samples were withdrawn from the dosed mice, and then were centrifuged at 6,000 rpm for 10 minutes at 4° C. The supernatant plasma samples were fetched and treated with 9 times volume of acetonitrile containing 0.5% trifluoromethane sulfonic acid. The treated plasmas were centrifuged at 12,000 rpm for 15 minutes at 4° C., and then the supernatants were fetched and analyzed with HPLC.
During treatment of blood samples before HPLC analysis, active drug 2-acetyl-4,9-dihydroxy-naphtho[2,3-b]furan and active metabolite 2-(1-hydroxyl)ethyl-4,9-dihydroxy-naphtho[2,3-b]furan are both oxidized into 2-acetyl-naphtho[2,3-b]furan-4,9-dione and 2-(1-hydroxyl)ethyl-naphtho[2,3-b]furan-4,9-dione, respectively (see scheme 1).
Scheme 1: Compound I is degraded by esterases into active drug, which is further metabolized into active metabolite. During pre-treatment for HPLC analysis, active drug and metabolite are oxidized by oxygen from air to oxidized drug and oxidized metabolite, respectively.
The Waters HPLC system used in this study includes: 1525 dual pump, 2998 photodiode array detector, 2707 auto sampler, Breeze 2 control and analysis software. The HPLC column used in this study: Phenomenex Luna C18, 250×4.60 mm 5 micron. The HPLC mobile phase: buffer A, 80% water, 20% acetonitrile; buffer B, 10% water, 70% acetonitrile, 20% tetrahydrofuran. The HPLC mobile phase gradient: 0-3 min, 50% buffer B to 50% buffer B, 3-10 min, 50% buffer B to 100% buffer B, 10-20 min, 100% buffer B to 100% buffer B, 20-22 min, 100% buffer B−50% buffer B, 22-25 min, 50% buffer B to 50% buffer B; flow rate, 1 ml/min.
Time courses of compound I, oxidized drug and oxidized active metabolite are illustrated in FIG. 2.

[1] = analyte in mouse plasma after NS-I-4 intravenously 30 mg/kg, ICR mice
[2] = iv, analyte in mouse plasma after NS-I-4 intravenously 30 mg/kg, ICR mice
[3] = iv, analyte in mouse plasma after NS-I-4 intravenously 30 mg/kg, ICR mice, read-out: AUC(0-t)
[4] = iv, analyte in mouse plasma after NS-I-4 intravenously 30 mg/kg, ICR mice, read-out: Cmax
[5] = iv, analyte in mouse plasma after NS-I-4 intravenously 30 mg/kg, ICR mice, read-out: Tmax

| SMILES | AUC(0-t) [1] | AUC(0-∞) [1] | CLz [1] | Cmax [1] | MRT(0-t) [1] | MRT(0-∞) [1] | Tmax [1] | Vz [1] | t1/2z [1] | AUC(0-inf) [2] | AUC(0-t) [3] | Cmax [4] | MRT last [2] | MRT inf [2] | Tmax [5] | Vd [2] | metabolic fate (administered intravenously into ICR mice) |
| --- | --- | --- | --- | --- | --- | --- | --- | --- | --- | --- | --- | --- | --- | --- | --- | --- | --- |
| CC(O)c1cc2c(o1)C(=O)c1ccccc1C2=O (stereo not shown) [2-(1-hydroxy)ethyl-naphtho[2,3-b]furan-4,9-dione] | 3801 ng·h/mL | 3999 ng·h/mL | 250.07 mL/min/kg | 1695 ng/mL | 86.28 min | 97.68 min | 30 min | 19.051 L/kg | 52.8 min |  |  |  |  |  |  |  |  |
| CC(=O)c1cc2c(o1)C(=O)c1ccccc1C2=O [2-acetyl-naphtho[2,3-b]furan-4,9-dione] |  |  | 58.62 mL/min/kg |  |  |  |  |  | 184.4 min | 8530 ng·h/mL | 7420 ng·h/mL | 6130 ng/mL | 74.9 min | 147 min | 10 min | 15.6 L/kg |  |
| CCCCCCCC(=O)Oc1c2ccccc2c(OC(=O)CCCCCCC)c2oc(C(C)=O)cc12 [Compound I, 2-acetyl-4,9-bis(octanoyloxy)-naphtho[2,3-b]furan] |  |  | 1.97 mL/min/kg |  |  |  |  |  | 23.8 min | 255000 ng·h/mL | 255000 ng·h/mL | 288000 ng/mL | 37.7 min | 37.7 min | 10 min | 0.067 L/kg | degraded by esterases into active drug 2-acetyl-4,9-dihydroxy-naphtho[2,3-b]furan |
